Measurements reported in ChEMBL document CHEMBL5543147, “Discovery and Characterization of a Novel Cereblon-Recruiting PRC1 Bridged PROTAC Degrader” (J Med Chem, 2024).
Calls of active or inactive are those of the source. The rule behind the calls is not given here.

Columns and labels:
[1] = biological target: von Hippel-Lindau disease tumor suppressor/Polycomb complex protein BMI-1 (Homo sapiens) (UniProt P40337+P35226); experiment: PROTAC activity at […] in human 786-0 cells with defective VHL assessed as degradation of BMI1 protein expression at 10 uM incubated for 24 hrs by Western blotting analysis; type: cell-based
[2] = biological target: T1, Protein cereblon/E3 ubiquitin-protein ligase RING2 (Homo sapiens, UniProt Q96SW2+Q99496); experiment: PROTAC activity at CRBN/RING1B in human K562 cells assessed as degradation of RING1B protein expression at 10 uM incubated for 20 hrs in presence of MLN4924 by Western blotting analysis; type: cell-based
T1 sequence (Q96SW2 whole entry): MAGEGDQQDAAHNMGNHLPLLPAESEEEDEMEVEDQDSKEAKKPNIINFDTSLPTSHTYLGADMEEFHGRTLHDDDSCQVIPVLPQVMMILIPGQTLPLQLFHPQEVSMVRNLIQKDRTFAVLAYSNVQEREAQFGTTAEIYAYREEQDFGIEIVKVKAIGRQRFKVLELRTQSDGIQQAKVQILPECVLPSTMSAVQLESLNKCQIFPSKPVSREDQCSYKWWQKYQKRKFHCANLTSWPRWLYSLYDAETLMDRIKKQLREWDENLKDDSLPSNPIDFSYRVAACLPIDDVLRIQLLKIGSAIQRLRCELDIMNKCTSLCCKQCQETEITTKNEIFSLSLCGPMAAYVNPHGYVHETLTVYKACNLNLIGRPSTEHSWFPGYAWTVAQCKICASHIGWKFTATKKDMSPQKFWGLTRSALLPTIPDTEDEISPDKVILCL
T1 sequence (Q99496 2-336 partner limits assumed): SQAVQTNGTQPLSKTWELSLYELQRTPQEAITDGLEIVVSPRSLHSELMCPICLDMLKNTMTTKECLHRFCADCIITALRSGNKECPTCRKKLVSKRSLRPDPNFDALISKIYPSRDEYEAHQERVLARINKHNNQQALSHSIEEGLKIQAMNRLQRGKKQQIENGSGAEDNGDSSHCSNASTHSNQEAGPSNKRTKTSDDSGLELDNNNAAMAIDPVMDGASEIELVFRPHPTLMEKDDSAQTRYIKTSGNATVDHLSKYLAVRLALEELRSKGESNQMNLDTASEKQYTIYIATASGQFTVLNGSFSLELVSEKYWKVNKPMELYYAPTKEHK

[3] = biological target: T2, Protein cereblon/Polycomb complex protein BMI-1 (Homo sapiens, UniProt Q96SW2+P35226); experiment: PROTAC activity at CRBN/BIM1 in human K562 cells assessed as degradation of BMI1 protein expression incubated for 24 hrs by Western blotting analysis; type: cell-based
Target sequence in this assay (Q96SW2 whole entry): as the sequence (Q96SW2 whole entry) above
Target sequence in this assay (P35226 whole entry): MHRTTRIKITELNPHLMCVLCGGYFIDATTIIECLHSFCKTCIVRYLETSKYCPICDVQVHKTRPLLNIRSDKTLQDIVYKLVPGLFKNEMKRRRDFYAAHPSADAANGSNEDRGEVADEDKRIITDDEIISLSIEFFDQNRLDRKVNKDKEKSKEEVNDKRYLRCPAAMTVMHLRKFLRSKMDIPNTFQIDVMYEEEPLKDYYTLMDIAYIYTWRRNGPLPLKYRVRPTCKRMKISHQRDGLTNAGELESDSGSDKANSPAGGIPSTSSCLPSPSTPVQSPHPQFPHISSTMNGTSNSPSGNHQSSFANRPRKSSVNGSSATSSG

[4] = biological target: T3, Protein cereblon/Polycomb protein EED (Homo sapiens, UniProt O75530+Q96SW2); experiment: PROTAC activity at CRBN/EED in human K562 cells assessed as degradation of EED protein expression incubated for 24 hrs by Western blotting analysis; type: cell-based
786-0 = experiment: Induction of PRC2 degradation in human 786-0 cells with defective VHL assessed as reduction of H3K27me3 chromatin mark at 10 uM incubated for 24 hrs by Western blotting analysis; type: cell-based
[5] = biological target: Protein cereblon/Chromobox protein homolog 8 (Homo sapiens) (UniProt Q9HC52+Q96SW2); experiment: PROTAC activity at CRBN/CBX8 in human K562 cells assessed as degradation of CBX8 protein expression at 1 to 10 uM incubated for 24 hrs by Western blotting analysis; type: cell-based; settings: dose 1-10 µM
Protein cereblon/Chromobox protein homolog 8 (Homo sapiens), sequence (Q96SW2 whole entry, looked up): as the sequence (Q96SW2 whole entry) above
Protein cereblon/Chromobox protein homolog 8 (Homo sapiens), sequence (Q9HC52 whole entry, looked up): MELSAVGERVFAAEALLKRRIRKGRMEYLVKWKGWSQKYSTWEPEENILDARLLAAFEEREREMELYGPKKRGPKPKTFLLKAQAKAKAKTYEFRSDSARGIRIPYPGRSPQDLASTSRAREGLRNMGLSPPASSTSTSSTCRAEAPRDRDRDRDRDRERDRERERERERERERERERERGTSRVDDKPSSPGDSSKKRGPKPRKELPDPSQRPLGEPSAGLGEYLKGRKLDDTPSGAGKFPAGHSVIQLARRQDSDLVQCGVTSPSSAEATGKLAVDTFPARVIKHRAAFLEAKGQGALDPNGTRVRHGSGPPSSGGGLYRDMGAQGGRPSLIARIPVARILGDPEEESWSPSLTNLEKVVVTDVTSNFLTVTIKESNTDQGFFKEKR

[6] = biological target: Protein cereblon/Eukaryotic peptide chain release factor GTP-binding subunit ERF3A (Homo sapiens) (UniProt Q96SW2+P15170); experiment: PROTAC activity at CRBN/GSPT1 in human K562 cells assessed as degradation of GSPT1 protein at 0.1 to 10 uM incubated for 4 hrs by Western blotting analysis; type: cell-based; settings: dose 0.1-10 µM
MDA-MB-468 [7] = experiment: Induction of PRC2 degradation in human MDA-MB-468 cells assessed as reduction of H3K27me3 chromatin mark at 5 uM incubated for 24 hrs by Western blotting analysis; type: cell-based
PNT2 = experiment: Cytotoxicity against human PNT2 cells assessed as inhibition of cell growth measured upto 15 uM incubated for 5 days by WST-8 assay; type: toxicity, cell-based; settings: pnt2, 120 h, time 5 day
MDA-MB-468 [8] = experiment: Antiproliferative activity against human MDA-MB-468 cells assessed as inhibition of cell growth at 1 to 10 uM incubated for 5 days by WST-8 assay; type: functional, cell-based; settings: dose 1-10 µM, time 5.0 day
Polycomb protein EED = Polycomb protein EED (Homo sapiens, UniProt O75530); experiment: Binding affinity to EED (75 to 441 residues) (unknown origin) expressed in Escherichia coli BL21 (DE3) assessed as dissociation constant by isothermal titration calorimetry
Polycomb protein EED, sequence (O75530 whole entry, the tested form may be a part): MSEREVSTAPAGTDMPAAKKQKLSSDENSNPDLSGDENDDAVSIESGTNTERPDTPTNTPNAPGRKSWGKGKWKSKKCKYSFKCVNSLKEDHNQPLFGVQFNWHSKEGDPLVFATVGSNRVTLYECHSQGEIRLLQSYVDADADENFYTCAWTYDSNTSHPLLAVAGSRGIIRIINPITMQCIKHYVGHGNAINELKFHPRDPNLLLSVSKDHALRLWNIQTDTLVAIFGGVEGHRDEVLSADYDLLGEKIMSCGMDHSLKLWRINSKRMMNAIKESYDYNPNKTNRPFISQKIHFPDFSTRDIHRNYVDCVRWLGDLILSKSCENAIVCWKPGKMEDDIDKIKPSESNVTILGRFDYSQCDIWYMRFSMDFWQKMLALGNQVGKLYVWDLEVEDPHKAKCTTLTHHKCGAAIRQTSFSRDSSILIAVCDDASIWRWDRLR

[9] = biological target: T2, Protein cereblon/Polycomb complex protein BMI-1; experiment: PROTAC activity at […] in human K562 cells assessed as degradation of BMI1 protein expression at 10 uM measured after 12 hrs by Western blotting analysis relative to control; type: cell-based
Target sequence in this assay (P35226 whole entry, looked up): as the sequence (P35226 whole entry) above
Target sequence in this assay (Q96SW2 whole entry, looked up): as the sequence (Q96SW2 whole entry) above

[10] = biological target: Protein cereblon/Zinc finger protein Aiolos (Homo sapiens) (UniProt Q96SW2+Q9UKT9); experiment: PROTAC activity at CRBN/IKZF3 in human K562 cells assessed as degradation of IKZF3 protein at 0.1 to 10 uM incubated for 4 hrs by Western blotting analysis; type: cell-based; settings: dose 0.1-10 µM
Protein cereblon/Zinc finger protein Aiolos (Homo sapiens), sequence (Q96SW2 whole entry, looked up): as the sequence (Q96SW2 whole entry) above
Protein cereblon/Zinc finger protein Aiolos (Homo sapiens), sequence (Q9UKT9 whole entry, looked up): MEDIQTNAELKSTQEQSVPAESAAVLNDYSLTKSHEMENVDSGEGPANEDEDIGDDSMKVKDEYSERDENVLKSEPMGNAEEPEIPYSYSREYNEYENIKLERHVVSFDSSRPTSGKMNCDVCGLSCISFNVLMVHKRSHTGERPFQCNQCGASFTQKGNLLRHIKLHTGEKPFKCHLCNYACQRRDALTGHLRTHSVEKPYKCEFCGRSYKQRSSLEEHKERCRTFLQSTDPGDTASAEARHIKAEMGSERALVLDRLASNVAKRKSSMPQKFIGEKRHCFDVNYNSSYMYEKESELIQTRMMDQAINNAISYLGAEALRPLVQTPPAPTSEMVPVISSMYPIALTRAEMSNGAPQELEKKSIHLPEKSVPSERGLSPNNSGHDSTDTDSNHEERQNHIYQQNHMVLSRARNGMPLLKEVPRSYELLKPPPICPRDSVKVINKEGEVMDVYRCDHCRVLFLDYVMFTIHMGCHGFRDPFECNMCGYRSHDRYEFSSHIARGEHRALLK

K562 [11] = experiment: Antiproliferative activity against human K562 cells assessed as cell growth inhibition incubated for 7 days by WST-8 assay; type: functional; settings: K562, 168 h, time 7 day
[12] = biological target: T1, Protein cereblon/E3 ubiquitin-protein ligase RING2; experiment: PROTAC activity at CRBN/RING1B in human K562 cells assessed as degradation of RING1B protein expression at 10 uM incubated for 20 hrs in presence of pomalidomide by Western blotting analysis; type: cell-based
MDA-MB-468 [13] = experiment: Induction of PRC1 degradation in human MDA-MB-468 cells assessed as reduction of H2AK119ub chromatin mark at 5 uM incubated for 24 hrs by Western blotting analysis; type: cell-based
[14] = biological target: T3, Protein cereblon/Polycomb protein EED; experiment: PROTAC activity at CRBN/EED in human K562 cells assessed as degradation of EED protein expression at 10 uM measured after 12 hrs by Western blotting analysis relative to control; type: cell-based
[15] = biological target: T2, Protein cereblon/Polycomb complex protein BMI-1; experiment: PROTAC activity at […] in human K562 cells assessed as degradation of BMI1 protein expression at 10 uM incubated for 20 hrs in presence of MG132 by Western blotting analysis; type: cell-based
Target sequence in this assay (P35226 whole entry, looked up): as the sequence (P35226 whole entry) above
Target sequence in this assay (Q96SW2 whole entry, looked up): as the sequence (Q96SW2 whole entry) above

[16] = biological target: T1, Protein cereblon/E3 ubiquitin-protein ligase RING2; experiment: PROTAC activity at CRBN/RING1B in human K562 cells assessed as degradation of RING1B protein expression at 10 uM incubated for 20 hrs in presence of EED226 by Western blotting analysis; type: cell-based
[17] = biological target: T1, Protein cereblon/E3 ubiquitin-protein ligase RING2; experiment: PROTAC activity at CRBN/RING1B in human PC-3M cells assessed as degradation of RING1B protein expression at 5 uM incubated for 24 hrs by Western blotting analysis; type: cell-based
PC-3M [18] = experiment: Inhibition of colony formation in human PC-3M cells at 1 to 10 uM incubated for 14 days by crystal violet staining based assay; type: functional, cell-based; settings: dose 1-10 µM, time 14.0 day
K562 [19] = experiment: Induction of PRC1 degradation in human K562 cells assessed as reduction of H2AK119ub chromatin mark at 0.1 to 10 uM incubated for 24 hrs by Western blotting analysis; type: cell-based; settings: dose 0.1-10 µM
PC-3M [20] = experiment: Induction of PRC1 degradation in human PC-3M cells assessed as reduction of H2AK119ub chromatin mark at 5 uM incubated for 24 hrs by Western blotting analysis; type: cell-based
[21] = biological target: Cereblon/Ikaros (Homo sapiens) (UniProt Q96SW2+Q13422); experiment: PROTAC activity at CRBN/IKZF1 in human K562 cells assessed as degradation of IKZF1 protein at 0.1 to 10 uM incubated for 4 hrs by Western blotting analysis; type: cell-based; settings: dose 0.1-10 µM
K562 [22] = experiment: Antiproliferative activity against human K562 cells assessed as fold increase in HoxA mRNA expression at 10 uM incubated for 24 hrs by RT-qPCR analysis; type: functional
PC-3M [23] = experiment: Induction of PRC1 degradation in human PC-3M cells assessed as reduction of H2AK119ub chromatin mark at 1 uM incubated for 24 hrs by Western blotting analysis; type: cell-based
[24] = biological target: T1, Protein cereblon/E3 ubiquitin-protein ligase RING2; experiment: PROTAC activity at CRBN/RING1B in human 786-0 cells with defective VHL assessed as degradation of RING1B protein expression at 10 uM incubated for 24 hrs by Western blotting analysis; type: cell-based
MDA-MB-468 [25] = experiment: Inhibition of colony formation in human MDA-MB-468 cells at 1 to 10 uM incubated for 14 days by crystal violet staining based assay; type: functional, cell-based; settings: dose 1-10 µM, time 14.0 day
[26] = biological target: T2, Protein cereblon/Polycomb complex protein BMI-1; experiment: PROTAC activity at […] in human K562 cells assessed as degradation of BMI1 protein expression at 10 uM incubated for 20 hrs in presence of MLN4924 by Western blotting analysis; type: cell-based
Target sequence in this assay (P35226 whole entry, looked up): as the sequence (P35226 whole entry) above
Target sequence in this assay (Q96SW2 whole entry, looked up): as the sequence (Q96SW2 whole entry) above

O=C(CNc1cccc2c1C(=O)N(C1CCC(=O)NC1=O)C2=O)NCCCCN1CCN(c2ccc(-c3cnc(NCc4ccco4)n4cnnc34)cc2)CC1 (centres undefined)
Activity [1]: Active | Activity [2]: inactive | DC50 [3]: 1.7 µM | DC50 [4]: 3.3 µM | Activity (786-0): inactive | Activity [5]: inactive | Activity [6]: inactive | Activity (MDA-MB-468 [7]): inactive | Activity (PNT2): Non-Toxic | Activity (MDA-MB-468 [8]): Active | Kd (Polycomb protein EED): 0.19 µM | Activity [9]: 100% | Activity [10]: inactive | GI50 (K562 [11]): 3.7 µM | Activity [12]: inactive | Activity (MDA-MB-468 [13]): Active | Activity [14]: 50% | Activity [15]: inactive | Activity [16]: inactive | Activity [17]: Active | inhibition (PC-3M [18]): Active | Activity (K562 [19]): Active | Activity (PC-3M [20]): Active | Activity [21]: inactive | fold change (FC) (K562 [22]): 3.1 | Activity (PC-3M [23]): Active | Activity [24]: Active | inhibition (MDA-MB-468 [25]): Active | Activity [26]: inactive
